# Reference: article PMC10175918 (Communications Biology, 2023)
# Read-outs that look alike come from different tables or passages of the source.
# Key:
# Assay in all cases: TGFα-shedding assay-based GPCR screening with chimeric Gα subunit proteins
# Type in all cases: cell-based
# [1] = molecular target: T1, 348 GPCRs (Homo sapiens, UniProt Q9UNW8); settings: G2A (GPR132); 10µM, Favipiravir 100μM
# T1 construct: expressed in transfected cells; host or cells: HEK293A
# T1 sequence (Q9UNW8 1-380): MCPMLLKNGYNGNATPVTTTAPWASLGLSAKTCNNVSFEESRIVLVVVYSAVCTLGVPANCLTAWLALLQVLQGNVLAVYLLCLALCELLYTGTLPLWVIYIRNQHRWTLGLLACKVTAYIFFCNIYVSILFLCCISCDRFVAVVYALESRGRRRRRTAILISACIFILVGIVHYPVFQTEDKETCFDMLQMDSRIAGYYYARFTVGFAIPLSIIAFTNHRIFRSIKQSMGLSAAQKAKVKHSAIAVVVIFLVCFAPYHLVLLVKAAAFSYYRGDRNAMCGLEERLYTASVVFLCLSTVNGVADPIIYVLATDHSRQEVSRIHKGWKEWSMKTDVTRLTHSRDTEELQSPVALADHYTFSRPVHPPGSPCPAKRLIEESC
# [2] = molecular target: 348 GPCRs (Homo sapiens, UniProt P61073)
# Chain of 348 GPCRs (Homo sapiens, UniProt P61073) (P61073 whole entry): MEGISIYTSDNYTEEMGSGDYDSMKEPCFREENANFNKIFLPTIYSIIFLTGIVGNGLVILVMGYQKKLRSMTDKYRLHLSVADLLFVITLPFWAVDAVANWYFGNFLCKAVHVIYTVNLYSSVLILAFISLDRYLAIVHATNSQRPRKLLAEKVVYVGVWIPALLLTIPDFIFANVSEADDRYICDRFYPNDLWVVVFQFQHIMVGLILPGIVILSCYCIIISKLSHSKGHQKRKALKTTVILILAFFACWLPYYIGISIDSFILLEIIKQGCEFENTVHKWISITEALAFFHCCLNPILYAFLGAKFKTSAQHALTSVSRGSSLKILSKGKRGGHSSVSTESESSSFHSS
# [3] = molecular target: T2, 348 GPCRs (Homo sapiens, UniProt O95136); settings: 10µM, Favipiravir 100μM
# T2 construct: expressed in transfected cells; host or cells: HEK293A
# T2 sequence (O95136 whole entry): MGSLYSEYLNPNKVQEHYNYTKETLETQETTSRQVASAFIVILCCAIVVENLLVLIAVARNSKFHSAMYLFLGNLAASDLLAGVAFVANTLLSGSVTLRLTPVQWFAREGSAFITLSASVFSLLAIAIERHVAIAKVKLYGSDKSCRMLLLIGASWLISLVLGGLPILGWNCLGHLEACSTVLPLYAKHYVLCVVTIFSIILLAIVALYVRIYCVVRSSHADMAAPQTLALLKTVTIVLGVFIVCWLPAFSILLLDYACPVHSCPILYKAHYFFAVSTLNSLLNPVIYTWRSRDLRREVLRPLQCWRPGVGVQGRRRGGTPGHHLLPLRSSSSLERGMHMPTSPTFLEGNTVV
# [4] = molecular target: T3, 348 GPCRs (Homo sapiens, UniProt P41180); settings: 10µM, Favipiravir 100μM
# T3 construct: expressed in transfected cells; host or cells: HEK293A
# T3 sequence (P41180 20-1078): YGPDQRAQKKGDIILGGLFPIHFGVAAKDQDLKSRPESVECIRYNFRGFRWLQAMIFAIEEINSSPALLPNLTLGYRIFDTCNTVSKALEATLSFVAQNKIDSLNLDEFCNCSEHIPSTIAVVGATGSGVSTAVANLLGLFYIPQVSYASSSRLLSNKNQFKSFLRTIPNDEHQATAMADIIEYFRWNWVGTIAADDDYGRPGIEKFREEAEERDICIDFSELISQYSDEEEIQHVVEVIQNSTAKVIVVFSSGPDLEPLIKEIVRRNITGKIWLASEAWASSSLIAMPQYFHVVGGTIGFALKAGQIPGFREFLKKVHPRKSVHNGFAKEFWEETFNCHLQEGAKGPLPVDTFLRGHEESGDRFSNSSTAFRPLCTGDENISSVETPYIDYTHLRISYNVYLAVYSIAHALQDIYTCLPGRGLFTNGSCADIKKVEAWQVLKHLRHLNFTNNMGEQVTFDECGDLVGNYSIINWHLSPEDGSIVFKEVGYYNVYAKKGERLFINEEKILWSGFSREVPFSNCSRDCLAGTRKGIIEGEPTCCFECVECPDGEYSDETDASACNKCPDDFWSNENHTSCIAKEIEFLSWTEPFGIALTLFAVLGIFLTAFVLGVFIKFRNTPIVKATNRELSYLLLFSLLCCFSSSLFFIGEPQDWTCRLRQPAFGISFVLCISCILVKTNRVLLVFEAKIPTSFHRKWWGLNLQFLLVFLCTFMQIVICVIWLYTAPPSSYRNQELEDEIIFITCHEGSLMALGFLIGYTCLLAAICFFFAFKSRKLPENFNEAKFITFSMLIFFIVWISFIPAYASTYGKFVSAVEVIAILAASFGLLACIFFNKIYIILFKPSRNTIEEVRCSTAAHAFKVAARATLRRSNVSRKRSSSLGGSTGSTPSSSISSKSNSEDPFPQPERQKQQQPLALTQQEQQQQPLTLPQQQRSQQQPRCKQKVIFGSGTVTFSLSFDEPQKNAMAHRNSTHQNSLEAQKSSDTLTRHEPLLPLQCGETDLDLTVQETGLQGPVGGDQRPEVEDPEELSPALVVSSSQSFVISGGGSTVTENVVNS
# [5] = molecular target: T4, 348 GPCRs (Homo sapiens, UniProt Q9NZH0); settings: 10µM, Favipiravir 100μM
# T4 construct: expressed in transfected cells; host or cells: HEK293A
# T4 sequence (Q9NZH0 29-403): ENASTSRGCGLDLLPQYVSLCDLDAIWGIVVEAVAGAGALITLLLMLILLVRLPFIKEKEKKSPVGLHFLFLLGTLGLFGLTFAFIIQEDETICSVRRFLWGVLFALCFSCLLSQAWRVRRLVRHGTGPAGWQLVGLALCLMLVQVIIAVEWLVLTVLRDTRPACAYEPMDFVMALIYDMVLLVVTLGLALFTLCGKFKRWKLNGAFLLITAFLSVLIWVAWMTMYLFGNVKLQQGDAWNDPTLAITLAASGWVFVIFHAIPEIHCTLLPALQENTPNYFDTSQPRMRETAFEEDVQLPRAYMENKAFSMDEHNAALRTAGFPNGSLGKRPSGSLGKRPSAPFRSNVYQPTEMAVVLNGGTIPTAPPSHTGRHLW
# [6] = molecular target: T5, 348 GPCRs (Homo sapiens, UniProt Q86Y34); settings: 10µM, Favipiravir 100μM
# T5 construct: expressed in transfected cells; host or cells: HEK293A
# T5 sequence (Q86Y34 21-549): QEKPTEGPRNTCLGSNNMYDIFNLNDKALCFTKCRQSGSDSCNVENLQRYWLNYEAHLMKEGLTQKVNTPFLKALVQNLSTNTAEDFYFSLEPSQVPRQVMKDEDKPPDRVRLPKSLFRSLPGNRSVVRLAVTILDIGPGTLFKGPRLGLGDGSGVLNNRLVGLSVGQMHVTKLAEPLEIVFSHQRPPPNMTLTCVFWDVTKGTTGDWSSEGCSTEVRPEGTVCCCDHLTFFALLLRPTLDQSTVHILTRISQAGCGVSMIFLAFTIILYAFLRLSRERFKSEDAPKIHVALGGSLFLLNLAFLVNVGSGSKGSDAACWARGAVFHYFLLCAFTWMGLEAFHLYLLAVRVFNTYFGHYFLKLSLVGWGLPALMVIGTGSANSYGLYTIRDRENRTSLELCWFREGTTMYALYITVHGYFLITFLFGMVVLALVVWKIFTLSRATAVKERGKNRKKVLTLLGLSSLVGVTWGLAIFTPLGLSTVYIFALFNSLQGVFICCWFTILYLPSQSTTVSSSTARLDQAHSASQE
# [7] = molecular target: T6, 348 GPCRs (Homo sapiens, UniProt P29275); settings: 10µM, Favipiravir 100μM
# T6 construct: expressed in transfected cells; host or cells: HEK293A
# T6 sequence (P29275 1-332): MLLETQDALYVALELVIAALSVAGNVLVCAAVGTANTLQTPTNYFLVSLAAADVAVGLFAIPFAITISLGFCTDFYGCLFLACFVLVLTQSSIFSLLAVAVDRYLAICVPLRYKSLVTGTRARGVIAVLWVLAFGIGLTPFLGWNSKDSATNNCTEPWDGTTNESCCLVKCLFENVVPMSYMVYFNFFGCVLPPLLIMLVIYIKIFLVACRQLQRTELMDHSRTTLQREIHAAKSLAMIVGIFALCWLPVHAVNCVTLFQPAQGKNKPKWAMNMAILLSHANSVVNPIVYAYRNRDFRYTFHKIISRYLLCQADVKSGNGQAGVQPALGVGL
# [8] = molecular target: T7, 348 GPCRs (Homo sapiens, UniProt P08173)
# T7 construct: expressed in transfected cells; host or cells: HEK293A
# T7 sequence (P08173 1-479): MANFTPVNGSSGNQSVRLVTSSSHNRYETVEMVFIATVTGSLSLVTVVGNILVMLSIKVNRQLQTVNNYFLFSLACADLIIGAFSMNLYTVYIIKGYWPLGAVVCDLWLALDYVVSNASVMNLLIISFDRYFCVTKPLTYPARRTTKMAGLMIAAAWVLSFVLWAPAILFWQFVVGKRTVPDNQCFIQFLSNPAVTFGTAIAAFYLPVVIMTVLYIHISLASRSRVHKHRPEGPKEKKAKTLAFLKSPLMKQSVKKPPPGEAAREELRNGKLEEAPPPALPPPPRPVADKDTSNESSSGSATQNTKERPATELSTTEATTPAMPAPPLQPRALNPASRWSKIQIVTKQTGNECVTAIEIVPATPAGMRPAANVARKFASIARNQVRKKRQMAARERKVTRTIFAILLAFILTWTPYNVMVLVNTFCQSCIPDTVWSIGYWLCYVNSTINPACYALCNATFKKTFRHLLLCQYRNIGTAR
# [9] = GPCR CXCR4 (chemokine (C-X-C motif) receptor 4), read-out: % GPCR activation compared to TPA
# [10] = S1PR2 (sphingosine-1-phosphate receptor 2), read-out: % GPCR activation compared to TPA
# [11] = CASR (calcium sensing receptor), read-out: % GPCR activation compared to TPA
# [12] = GPRC5B (G protein-coupled receptor class C group 5 member B), read-out: % GPCR activation compared to TPA
# [13] = GPR97 (Adhesion G Protein-Coupled Receptor G3 (ADGRG3)), read-out: % GPCR activation compared to TPA
# [14] = ADORA2B (adenosine A2b receptor), read-out: % GPCR activation compared to TPA
# [15] = GPCR M4 (Muscarinic acetylcholine receptor M4), read-out: % GPCR activation compared to TPA
# [16] = read-out: % GPCR activation compared to TPA, GPCR CXCR4 (chemokine (C-X-C motif) receptor 4)
# [17] = read-out: % GPCR activation compared to TPA, S1PR2 (sphingosine-1-phosphate receptor 2)
# [18] = read-out: % GPCR activation compared to TPA, CASR (calcium sensing receptor)
# [19] = read-out: % GPCR activation compared to TPA, GPRC5B (G protein-coupled receptor class C group 5 member B)
# [20] = read-out: % GPCR activation compared to TPA, GPR97 (Adhesion G Protein-Coupled Receptor G3 (ADGRG3))
# [21] = read-out: % GPCR activation compared to TPA, ADORA2B (adenosine A2b receptor)
# [22] = read-out: % GPCR activation compared to TPA, GPCR M4 (Muscarinic acetylcholine receptor M4)
SMILES,% GPCR activation compared to TPA [1] [%],"activation at 10 µM [2, 9] [%]","activation at 10 µM [3, 10] [%]","activation at 100 µM [4, 11] [%]","activation at 100 µM [5, 12] [%]","activation at 100 µM [6, 13] [%]","activation at 10 µM [7, 14] [%]","activation at 10 µM [8, 15] [%]","activation at 100 µM ([2]; GPCR CXCR4 (chemokine (C-X-C motif) receptor 4), 100μM, read-out: % GPCR activation compared to TPA) [%]","activation at 100 µM ([8]; GPCR M4 (Muscarinic acetylcholine receptor M4), 100μM, read-out: % GPCR activation compared to TPA) [%]","activation at 10 µM [2, 16] [%]","activation at 10 µM [3, 17] [%]","activation at 100 µM [4, 18] [%]","activation at 100 µM [5, 19] [%]","activation at 100 µM [6, 20] [%]","activation at 10 µM [7, 21] [%]","activation at 10 µM [8, 22] [%]"
CC(C)C(=O)OC[C@H]1O[C@@H](n2ccc(NO)nc2=O)[C@H](O)[C@@H]1O [molnupiravir],-1.8016,-1.55,-2.13,-0.137,-3.43,-1.08,-1.6,-1.11,–,–,–,–,–,–,–,–,–
CCC(CC)COC(=O)[C@H](C)N[P@](=O)(OC[C@H]1O[C@@](C#N)(c2ccc3c(N)ncnn23)[C@H](O)[C@@H]1O)Oc1ccccc1 [remdesivir],10.99,–,–,–,–,–,–,–,–,–,1.64,-3.06,4.48,6.88,-1.74,1.79,-2.98
CC(C)OC(=O)[C@H](C)N[P@](=O)(OC[C@H]1O[C@@H](n2ccc(=O)[nH]c2=O)[C@](C)(F)[C@@H]1O)Oc1ccccc1 [sofosbuvir],-1.375,–,–,–,–,–,–,–,–,–,1.3,0.199,-3.31,-12.5,-1.21,0.00372,-1.57

# Further lines, with some results ahead:
% GPCR activation compared to TPA [1] [%],"activation at 10 µM [2, 9] [%]","activation at 10 µM [3, 10] [%]","activation at 100 µM [4, 11] [%]","activation at 100 µM [5, 12] [%]","activation at 100 µM [6, 13] [%]","activation at 10 µM [7, 14] [%]","activation at 10 µM [8, 15] [%]","activation at 100 µM ([2]; GPCR CXCR4 (chemokine (C-X-C motif) receptor 4), 100μM, read-out: % GPCR activation compared to TPA) [%]","activation at 100 µM ([8]; GPCR M4 (Muscarinic acetylcholine receptor M4), 100μM, read-out: % GPCR activation compared to TPA) [%]",SMILES,"activation at 10 µM [2, 16] [%]","activation at 10 µM [3, 17] [%]","activation at 100 µM [4, 18] [%]","activation at 100 µM [5, 19] [%]","activation at 100 µM [6, 20] [%]","activation at 10 µM [7, 21] [%]","activation at 10 µM [8, 22] [%]"
-8.135,-0.228,-1.37,1.55,4.38,-0.758,1.2,-4.09,–,–,N#C[C@@]1(c2ccc3c(N)ncnn23)O[C@H](CO)[C@@H](O)[C@H]1O [GS441524],–,–,–,–,–,–,–
7.4,–,-1.8,0.748,7.41,-1.79,1.67,–,-0.773,-6.29,"NC(=O)c1nc(F)cnc1O [favipiravir, 6-fluoro-3-hydroxy-2-pyrazinecarboxamide]",–,–,–,–,–,–,–
